Data set [1] has as its system DSS induced mouse ulcerative colitis model. Kind of data set: Efficacy test in DSS induced mouse ulcerative colitis model. The class given is in vivo. An excerpt:
Mice of 6-7 weeks old were randomly grouped, 6 mice per group. Purified water was provided ad libitum to the mice in a negative control group, and a 2% solution of dextran sulfate sodium (DSS) was provided ad libitum to the mice in other groups, for 7 consecutive days. During the modeling, medication was given according to the groups, once a day for 7 days (the treatment groups and the mouse numbers can be adjusted according to the specific situation). Within 8-10 days later, the DSS-containing water was replaced with purified water, provided ad libitum to the mice. The normal administration continued for 3 days.
From the first day of administration, the general conditions such as metal state, eating, drinking and activities of the mice were respectively observed every day, the mice were weighed every day, and the animal stools were collected, evaluated for their traits and subjected to the occult blood test. The disease activity index (DAI) of experimental animals within 1-10 days were comprehensively assessed.
Scoring was performed according to the above-mentioned standards. The disease activity index (DAI) of each mouse was obtained by summing the scores of weight loss, stool trait and occult blood condition, to evaluate the disease activity. DAI=(score of weight loss+score of stool trait+score of bloody stool)/3, ranging from 0-4.
The experimental data was processed statistically, and the data are all expressed as mean±SD or mean±SME. The SPSS13.0 software was used for statistical analysis, and the differences among the groups were compared with t test (equal variance) or t′ test (unequal variance).

A short description of data set [2]: Liver microsome test (metabolic stability). Format: in vitro ADME, human. On the procedure:
In an incubation system with a total volume of 250 μL, an incubation solution of hum an liver microsomes containing 0.5 mg/mL protein was formulated with a 50 mmol/L PBS buffer (pH=7.4). Before the start of incubation, 2.5 μL of a 100 μmol/L compound to be tested was mixed with 197.5 μL of the above incubation buffer, pre-incubated for 5 min in a 37° C. water bath, and then added with 50 μL of a reducing coenzyme II solution (5 mmol/L) that was likewise pre-incubated for 5 min to start a reaction (in the reaction system, the protein content of liver microsomes from various species was 0.5 g/L, and the final concentration of the compound to be tested was 1 μmol/L), incubated in a 37° C. water bath with shaking, and taken out at 0, 5, 15, 30, and 60 min respectively. 600 μL of a methanol solution of mixed positive and negative internal standards with internal standards Terfenadine (positive ion internal standard, 25 ng/mL) and Tolbutamide (negative ion internal standard, 50 ng/mL) was immediately added to terminate the reaction. The incubation solution after termination was shaken for 2 min and centrifuged (4° C., 16000 r/min) for 10 min, and the supernatant was taken for LC-MS/MS detection to quantitatively analyze the remaining amount of the parent drug. (DMSO=0.1%).
The concentration of the compound at 0 mi incubation was regarded as 100%, and the concentrations at other incubation time points were converted into the remaining percentages. The natural logarithm of the remaining percentage at each time point was linearly regressed against the incubation time, and the slope k was calculated. According to the formula T1/2=−0.693/k, the in vitro half-life was calculated. Clearance in liver microsomes (CLint (μL/min/mg protein)=Ln (2)*1000/T1/2 (min/Protein Conc (mg/ml)).
(Microsomes from liver hold many membrane-bound enzymes, among them those of drug oxidation.)

Data set [3] relates to DNBS induced rat Crohn's disease model. As to the kind of experiment: Therapeutic activity in DNBS induced rat Crohn's disease model. Format: in vivo. Also noted: rat colon ulcer area: unit not given beside the values. Particulars: for colon weight-length ratio / rat colon ulcer area: 7 days, mean±SD; for colon weight-length ratio: colon weight (g)/length (cm) ratio×100, model group G2 14.6±5.1; for rat colon ulcer area: model group G2 1.54±2.00. On the procedure: Male wistar rats of 4-5 weeks old were adaptively fed for 5 days, and two days before the experiment, randomly divided into 6 groups:
Blank control group: G1 (Normal), 4 normal rats were selected and only given with 30% ethanol, 10 mL/kg.
0.5 mL of 50 mg/mL DNBS (DNBS dissolved in 30% ethanol) was injected into the colon of rats to induce enteritis in rats, for 40 rats in total. Eight of them were selected as model group G2 (Model), and the remaining 32 rats were administrated.
Administration group: the rats with DNBS induced enteritis were administered with ABT494 and the compound of Example 2 respectively and divided into G3-G6 groups, 8 rats/group. G3: ABT494, 10 mg/kg-QD; G4: Example 2, 0.3 mg/kg-BID; G5: Example 2, 1 mg/kg-BID; and G6: Example 2, 3 mg/kg-BID.
The rats were fasted, but fed with water for 48 hours, and a 5% glucose salt solution (10 mL/kg) was used as an energy supplement for experimental animals during the fasting period, once a day. On the day of experimental modeling, the fasting rats were anesthetized with Choutet (25 mg/kg), and then 0.5 mL of 50 mg/mL DNBS was injected from the anus to left colic flexure of the rat (about 8 cm to the anus) to induce rat enteritis. All rats were kept in a […] for 15 min until they were awaken, to prevent the backflow of DNBS. From the day of the experimental modeling, medication was given for 7 days.
After the DNBS modeling, the weights of the animals were measured and recorded every day, the daily activities of the animals were observed, and the abnormalities were recorded. During the experiment, the stool state of the rats was scored every day. On day 7, the rats were anesthetized with isoflurane (3-5%), blood was taken from the orbit, and the serum was separated and stored at −80° C. All animals were euthanized by cervical vertebra dis location after suffocation from excessive CO2 inhalation. The abdomen was cut, the colorectum was take out and longitudinally dissected, and the stool trait in the colorectum was scored. The colorectum was thoroughly rinsed with ice-cold PBS and then the ulcer surface was observed. The length and weight and ulcer area of the colon were recorded, the weight-length ratio (colon weight (g)/length (cm) ratio×100) was calculated, and the overall picture was taken. All intestinal tissue was longitudinally divided into two parts, where one part was fixed with 4% neutral […] and embedded with paraffin, and the rest colon sample was cryopreserved at −80° C.
Excel and Graphapad software were used for statistical analysis, and the results were expressed as mean±SD.

[4] abbreviates: human liver microsomes, conclusion from Table 2.

Molecules are shown by their SMILES.

What is called half-life is how long it takes for the measured level to halve. As to `NC(=O)c1cnc2[nH]ccc2c1NN1CCC[C@H](C(=O)NCC(F)F)C1` [Example 2, (S)-4-(3-(2,2-difluoroethylcarbamoyl)piperidine-1-amino)-1H-7-azaindole-5-carboxamide], in data set [1] (5 mg/kg group, once a day, mouse DSS model, DAI range 0-4), the “DAI score on day 8” value is listed as 1.5. Also, the “effect on DSS induced enteritis in mice (in words)” value in data set [1] (relatively low dose) is “significant effect in inhibiting the DSS induced enteritis in mice”. The “Remaining % (60 min)” value in data set [2] (human liver microsomes 0.5 mg/mL protein, compound 1 μmol/L, 37° C., 60 min) is 91.9%. For the same compound, in data set [2] (setting [4]), the “metabolic half-life in liver microsomes compared with Tofacitinib (in words)” value was “significantly superior to the positive drug Tofacitinib” and the “metabolic stability in liver microsomes (in words)” value is “excellent metabolic activity in liver”. Further, in data set [2] (pH 7.4, human liver microsomes 0.5 mg/mL protein, compound 1 μmol/L, 37° C.), the half-life at 1 μmol/L came out at 5.5 h. In data set [2] (pH 7.4, human liver microsomes 0.5 mg/mL protein, compound 1 μmol/L, 37° C., read-out: Clint (μL/min/mg protein)), the microsomal CLint at 1 μmol/L amounted to 4.2 µL/min/mg. Further, in data set [3] (G4, 0.3 mg/kg-BID), the colon weight-length ratio stood at 10.5±3.9 and the “rat colon ulcer area” value is listed as 0.83±1.00. Further, in data set [3] (G5, 1 mg/kg-BID), the colon weight-length ratio is 10.0±1.9 and the “rat colon ulcer area” value is on record as 0.65±1.05. For the same compound, in data set [3] (G6, 3 mg/kg-BID), the colon weight-length ratio was found to be 10.5±2.0 and the “rat colon ulcer area” value worked out at 0.76±1.21. For the same compound, in data set [3] (relatively low dose), the “effect on DNBS induced enteritis of the rats (in words)” value is “significant effect in inhibiting the DNBS induced enteritis of the rats”.
